What was measured:
saphenous artery rings = assay: Vasorelaxant effect in vitro (phenylephrine-contracted artery rings); format: cell-based, Rabbits; conditions: rabbit saphenous artery rings, contraction induced by phenylephrine
Method: Rabbits are anesthetized and sacrificed by intravenous injection of thiopental sodium (about 50 mg/kg) and exsanguinated. The saphenous artery is removed and divided into rings 3 mm wide. The rings are mounted singly on in each case a pair of triangular hooks open at the end and made of 0.3 mm-thick special wire (Remanium®). Each ring is placed under an initial tension in 5 ml organ baths with Krebs-Henseleit solution which is at 37° C., is gassed with 95% O2/5% CO2 and has the following composition: NaCl 119 mM; KCl 4.8 mM; CaCl2×2H2O 1 mM; MgSO4×7H2O 1.4 mM; KH2PO4 1.2 mM; NaHCO3 25 mM; glucose 10 mM; bovine serum albumin 0.001%. The force of contraction is detected with Statham UC2 cells, amplified and digitized via A/D converters (DAS-1802 HC, Keithley Instruments, Munich) and recorded in parallel on chart recorders. Contractions are induced by addition of phenylephrine.
After several (generally 4) control cycles, the substance to be investigated is added in each further run in increasing dosage, and the height of the contraction achieved under the influence of the test substance is compared with the height of the contraction reached in the last preceding run. The concentration necessary to reduce the contraction reached in the preceding control by 50% is calculated from this (IC50). The standard application volume is 5 μl. The proportion of DMSO in the bath solution corresponds to 0.1%.

[1] = target: T1, Heme-containing sGC (recombinant soluble guanylate cyclase) (Rattus norvegicus, UniProt P20595); assay: Stimulation of recombinant soluble guanylate cyclase (sGC) in vitro, heme-containing enzyme; format: biochemical
T1 construct: made in house
T1 sequence (P20595 1-619): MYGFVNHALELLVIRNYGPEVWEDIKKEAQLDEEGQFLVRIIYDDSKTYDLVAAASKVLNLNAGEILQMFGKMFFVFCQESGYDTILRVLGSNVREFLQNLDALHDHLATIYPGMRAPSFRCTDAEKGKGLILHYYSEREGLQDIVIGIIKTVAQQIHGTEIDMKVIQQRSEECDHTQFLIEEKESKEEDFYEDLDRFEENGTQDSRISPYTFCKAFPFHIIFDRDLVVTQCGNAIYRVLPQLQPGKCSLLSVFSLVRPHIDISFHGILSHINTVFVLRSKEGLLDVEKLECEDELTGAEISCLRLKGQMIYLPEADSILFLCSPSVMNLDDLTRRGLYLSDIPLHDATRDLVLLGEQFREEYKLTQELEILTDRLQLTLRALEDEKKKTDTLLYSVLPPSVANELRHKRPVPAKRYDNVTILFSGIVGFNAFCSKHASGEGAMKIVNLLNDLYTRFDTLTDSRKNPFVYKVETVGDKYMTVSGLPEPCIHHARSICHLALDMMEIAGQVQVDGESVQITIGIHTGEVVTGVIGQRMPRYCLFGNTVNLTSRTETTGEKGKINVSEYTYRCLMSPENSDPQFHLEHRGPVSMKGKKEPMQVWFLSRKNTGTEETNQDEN
T1 sequence (P19686 1-690 partner): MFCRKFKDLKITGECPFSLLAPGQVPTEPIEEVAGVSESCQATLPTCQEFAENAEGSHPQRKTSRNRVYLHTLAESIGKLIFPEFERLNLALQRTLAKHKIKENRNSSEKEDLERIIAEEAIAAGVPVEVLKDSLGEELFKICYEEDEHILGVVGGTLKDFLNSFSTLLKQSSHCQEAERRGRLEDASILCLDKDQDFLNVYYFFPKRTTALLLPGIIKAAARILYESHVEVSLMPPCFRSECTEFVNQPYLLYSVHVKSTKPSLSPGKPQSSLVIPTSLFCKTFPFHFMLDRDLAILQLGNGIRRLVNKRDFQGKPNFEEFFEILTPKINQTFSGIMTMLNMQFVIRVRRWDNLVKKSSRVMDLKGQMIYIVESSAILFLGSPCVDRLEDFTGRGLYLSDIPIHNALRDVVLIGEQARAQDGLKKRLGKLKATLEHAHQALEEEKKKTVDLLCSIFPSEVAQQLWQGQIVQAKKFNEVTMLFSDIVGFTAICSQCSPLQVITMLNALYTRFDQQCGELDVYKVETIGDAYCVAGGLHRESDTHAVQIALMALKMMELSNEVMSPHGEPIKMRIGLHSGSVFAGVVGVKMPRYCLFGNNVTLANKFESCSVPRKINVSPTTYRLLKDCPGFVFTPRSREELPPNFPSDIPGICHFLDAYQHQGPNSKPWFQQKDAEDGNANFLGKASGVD
Excerpt: Hoenicka, E. M. Becker, H. Apeler, T. Sirichoke, H. Schroeder, R. Gerzer and J.-P. Stasch, “Purified soluble guanylyl cyclase expressed in a baculovirus/Sf9 system: Stimulation by YC-1, nitric oxide, and carbon oxide”, J. Mol. Med. 77 (1999), 14-23. The heme-free guanylate cyclase is obtained by adding Tween 20 to the sample buffer (0.5% in the final concentration).
(§1) The activation of sGC by a test substance is reported as n-fold stimulation of the basal activity.

[2] = target: T2, Heme-free sGC (recombinant soluble guanylate cyclase) (Rattus norvegicus, UniProt P20595); assay: Stimulation of recombinant soluble guanylate cyclase (sGC) in vitro, heme-free enzyme; format: biochemical
T2 construct: made in house
T2 sequence (P20595 1-619): T1 sequence (P20595 1-619)
T2 sequence (P19686 1-690 partner): T1 sequence (P19686 1-690 partner)
Method: Investigations on the stimulation of recombinant soluble guanylate cyclase (sGC) by the compounds according to the invention with and without sodium nitroprusside, and with and without the heme-dependent sGC inhibitor 1H-1,2,4-oxadiazole-(4,3a)-quinoxalin-1-one (ODQ) are carried out by the method described in detail in the following reference: M. Hoenicka, E. M. Becker, H. Apeler, T. Sirichoke, H. Schroeder, R. Gerzer and J.-P. Stasch, “Purified soluble guanylyl cyclase expressed in a baculovirus/Sf9 system: Stimulation by YC-1, nitric oxide, and […]”, J. Mol. Med. 77 (1999), 14-23. The heme-free guanylate cyclase is obtained by adding Tween 20 to the sample buffer (0.5% in the final concentration).
as §1

## CC(C)(C)c1ccc(COc2ccccc2/C=C/C(CCc2ccc(-c3nnn[nH]3)cc2)Cc2ccc(C(=O)O)cc2)cc1 (single isomer, unassigned) [Example 6, 4-((3E)-4-{2-[(4-tert-Butylbenzyl)oxy]phenyl}-2-{2-[4-(1H-tetrazol-5-yl)phenyl]ethyl}but-3-en-1-yl)benzoic acid]
Saphenous artery rings
  IC50: 119 nM
[1]; 0.001 μM Example 6
  Stimulation (n-fold) Heme-containing sGC Basal: 1.9 n-fold
[1]; 0.001 μM Example 6 + 0.1 μM DEA/NO
  Stimulation (n-fold) Heme-containing sGC +0.1 μM DEA/NO: 62.0 n-fold
[1]; 0.001 μM Example 6 + 10 μM ODQ
  Stimulation (n-fold) Heme-containing sGC +10 μM ODQ: 4.8 n-fold
[1]; 0.01 μM Example 6
  Stimulation (n-fold) Heme-containing sGC Basal: 5.1 n-fold
[1]; 0.01 μM Example 6 + 0.1 μM DEA/NO
  Stimulation (n-fold) Heme-containing sGC +0.1 μM DEA/NO: 66.0 n-fold
[1]; 0.01 μM Example 6 + 10 μM ODQ
  Stimulation (n-fold) Heme-containing sGC +10 μM ODQ: 25.7 n-fold
[1]; 0.1 μM Example 6
  Stimulation (n-fold) Heme-containing sGC Basal: 20.2 n-fold
[1]; 0.1 μM Example 6 + 0.1 μM DEA/NO
  Stimulation (n-fold) Heme-containing sGC +0.1 μM DEA/NO: 80.0 n-fold
[1]; 0.1 μM Example 6 + 10 μM ODQ
  Stimulation (n-fold) Heme-containing sGC +10 μM ODQ: 102.7 n-fold
[1]; 1 μM Example 6
  Stimulation (n-fold) Heme-containing sGC Basal: 29.5 n-fold
[1]; 1 μM Example 6 + 0.1 μM DEA/NO
  Stimulation (n-fold) Heme-containing sGC +0.1 μM DEA/NO: 96.2 n-fold
[1]; 1 μM Example 6 + 10 μM ODQ
  Stimulation (n-fold) Heme-containing sGC +10 μM ODQ: 125.8 n-fold
[1]; 10 μM Example 6
  Stimulation (n-fold) Heme-containing sGC Basal: 42.1 n-fold
[1]; 10 μM Example 6 + 0.1 μM DEA/NO
  Stimulation (n-fold) Heme-containing sGC +0.1 μM DEA/NO: 99.9 n-fold
[1]; 10 μM Example 6 + 10 μM ODQ
  Stimulation (n-fold) Heme-containing sGC +10 μM ODQ: 135.0 n-fold
[1]; combination of Example 6 and DEA/NO
  Effect of combination with the NO donor DEA/NO on sGC stimulation: no synergistic effect
[1]; with ODQ, effect in fact increased
  Effect of the heme-dependent sGC inhibitor ODQ on sGC activation: not blocked
[2]; 0.001 μM Example 6
  Stimulation (n-fold) Heme-free sGC Basal: 3.2 n-fold
[2]; 0.001 μM Example 6 + 10 μM ODQ
  Stimulation (n-fold) Heme-free sGC +10 μM ODQ: 3.0 n-fold
[2]; 0.01 μM Example 6
  Stimulation (n-fold) Heme-free sGC Basal: 20.4 n-fold
[2]; 0.01 μM Example 6 + 10 μM ODQ
  Stimulation (n-fold) Heme-free sGC +10 μM ODQ: 18.9 n-fold
[2]; 0.1 μM Example 6
  Stimulation (n-fold) Heme-free sGC Basal: 90.9 n-fold
[2]; 0.1 μM Example 6 + 10 μM ODQ
  Stimulation (n-fold) Heme-free sGC +10 μM ODQ: 89.7 n-fold
[2]; 1 μM Example 6
  Stimulation (n-fold) Heme-free sGC Basal: 143.8 n-fold
[2]; 1 μM Example 6 + 10 μM ODQ
  Stimulation (n-fold) Heme-free sGC +10 μM ODQ: 143.8 n-fold
[2]; 10 μM Example 6
  Stimulation (n-fold) Heme-free sGC Basal: 145.9 n-fold
[2]; 10 μM Example 6 + 10 μM ODQ
  Stimulation (n-fold) Heme-free sGC +10 μM ODQ: 149.3 n-fold
